In patent publication US5521315A, “Olefin substituted long chain compounds” (priority 1993, dated 1996):
Like-named read-outs stand apart in the source and are kept apart here.

What was measured:
[1] = test system: polymorphonuclear leukocytes; details: in response to a stimulator of chemotaxis; cited from earlier work
cerebral blood flow = details: in vivo; cited from earlier work
PUMP-1 = PUMP-1 activity induced by 100 U/ml of IL-1; format: cell-based; details: IL-1 100 U/ml
Description: Metalloproteases mediate tissue damage such as glomerular diseases of the kidney, joint destruction in arthritis, and lung destruction in emphysema, and play a role in tumor metastases. Three examples of metalloproteases include a 92 kD type V gelatinase induced by TNF, IL-1 and PDGF plus βFGF, a 72 kD type IV collagenase that is usually constitutive and induced by TNF or IL-1, and a stromelysin/PUMP-1 induced by TNF and IL-1. The inventive compounds can inhibit TNF or IL-1 induction of the 92 kD type V gelatinase inducable metalloprotease. Moreover, the inventive compounds can reduce PUMP-1 activity induced by 100 U/ml of IL-1. […] Accordingly, the inventive compounds prevent induction of certain metalloproteases induced by IL-1 or TNF and are not involved with constitutively produced proteases (e.g., 72 kD type IV collagenase) involved in normal tissue remodeling.

[2] = test system: generation of DAG and PA in ras-transformed NIH/3T3 cells; test: Serum-stimulated generation of DAG and PA in ras-transformed NIH/3T3 cells; format: cell-based; details: pretreatment of cells
Description: For example, activating ras mutations result in increased generation of DAG on stimulation with mitogens, although the sources of DAG have differed between experimental systems. In nontransformed renal mesangial cells, IL-1 β stimulation increased PLA2 and LPAAT activation, resulting in generation of sn-2 unsaturated PA and subsequent hydrolysis to DAG by phosphatidate phosphohydrolase. The ras transformation in NIH/3T3 cells upregulates serum-stimulated generation of DAG and PA. The specific species of DAG that is stimulated by serum is dioleoyl and for PA are dilinoleoyl and dioleoyl. […] The inhibition occurs either through suppressing the generation of PA de novo from lysoPA, or through inhibition of one or both arms of the Lands cycle. […] Therefore, the ras transformation mediates an upregulation of PA through indirect stimulation of PLA2 and/or LPAAT activity.

LPAAT = test: Formation of remodeled PA through the PA/DAG pathway (in vitro); format: cell-based; details: high PTX concentrations
Description: Even in the presence of PTX, cells continue to form PA through the action of PLD, and DAG is also formed through the action of phospholipase C on PC and PI. The latter pathway is not inhibited by the inventive compounds or PTX. In PTX-treated cells, DAG derived from remodeled and PLA-generated PA is diminished (e.g., 1,2-sn-dioleoyl DAG, 1-alkyl,2-linoleoyl DAG and 1-alkyl,2-docosahexaneolyl DAG). Therefore, the inventive compounds and PTX inhibit the formation of only a certain species of PA and DAG by selectively inhibiting a specific second messenger pathway that is only activated in cells by noxious stimuli, but is not used to signal normal cellular housekeeping functions.

[3] = test system: ras-transformed NIH/3T3 cells
[4] = test system: tumor necrosis factor (TNF); details: cited from earlier work

Row | Structure (SMILES) | chemotaxis stimulation [1] | cerebral blood flow (cerebral blood flow) | PUMP-1 activity, % of control levels (PUMP-1) | inhibition of DAG/PA generation [2] | inhibition of formation of remodeled PA (LPAAT) | cytotoxicity in ras-transformed cells [3] | inhibition of ras-transformed cells ([3]; vs parental cells) | TNF levels ([4]; normal volunteers) | TNF levels ([4]; with GM-CSF, patients undergoing allogeneic bone marrow transplant)
1 | CC(O)CCCCn1c(=O)c2c(ncn2C)n(C)c1=O (stereo not shown) [M1, 1-(5-hydroxyhexyl)-3,7-dimethylxanthine] | stimulate chemotaxis in polymorphonuclear leukocytes | increasing cerebral blood flow | – | – | – | – | – | – | –
2 | CC(=O)CCCCn1c(=O)c2c(ncn2C)n(C)c1=O [PTX, 1-(5-oxohexyl)-3,7-dimethylxanthine] | stimulate chemotaxis in polymorphonuclear leukocytes | – | 95% | blocks generation of these phospholipid second messengers | blocks formation of remodeled PA through the PA/DAG pathway at high PTX concentrations | not associated with significant cytotoxicity | inhibits ras-transformed NIH/3T3 cells more than parental cells | TNF levels were higher among PTX recipients | decrease tumor necrosis factor (TNF) levels
